Usually pIC50 stands for the IC50 on a negative log10 scale, so that one unit is a factor of ten. As a reminder, the inhibition is the relative decrease from the control value, in per cent.

Results on ten compounds are retold here after patent publication US20240025863A1, “SOS1 PROTEIN DEGRADERS, PHARMACEUTICAL COMPOSITIONS THEREOF, AND THEIR THERAPEUTIC APPLICATIONS” (BioTheryX, Inc., priority 2020, published 2024).

Holding throughout (assay type): cell-based
One experiment concerns SW480 cells (G12V). Nature of the experiment: Cell viability assay (CellTiter-Glo), SW480 cells. The following applies: Homo sapiens, read-out: Inhibition of Cancerous Cells IC50 SW480 (G12V). The method, boiled down:
(§1)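 Each cell line is treated with compound for 3 days at 37 °C under 5% CO2 in its own medium containing 2.5% FBS. ATP-based CellTiter-Glo luminescence, measured after 10 min shaking, serves as the viability signal relative to DMSO control.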
(In general: ATP-based viability assays read luminescence as a measure of living cells.)

A further experiment deals with Lovo cells (G13D). Description: Cell viability assay (CellTiter-Glo), Lovo cells. The following applies: Homo sapiens, 72 h, read-out: Inhibition of Cancerous Cells IC50 Lovo (G13D). The method, boiled down: as §1
The test system of the next experiment is H23 cells. Description: Cell viability assay (CellTiter-Glo), H23 cells. The note with it: Homo sapiens, NCI-H23, 72 h, read-out: Inhibition of Cancerous Cells IC50 H23. The procedure:
H358, H23, SW48, and AsPC-1 cells were cultured in RPMI 1640 media supplemented with 10% fetal bovine serum, streptomycin, and penicillin. Lovo and SW480 cells were cultured in DMEM media supplemented with 10% fetal bovine serum, streptomycin, and penicillin. The cell lines were plated in their respective medium supplemented with 2.5% fetal bovine serum, streptomycin, and penicillin. All cell lines were plated in white walled 96-well plates at 2,000 cells/well or 384-well plates at 500 cells/well, except Lovo, which were plated at 4,000 or 1,000 cells/well, respectively. The cells were incubated in DMSO (control) or a compound for 3 days at 37° C. under 5% CO2. A CELLTITER-GLO® reagent (100 μL) was then added to each well. After a 10 min incubation with shaking, luminescence was measured using an ENVISION® multimode plate reader.

In another experiment the test system is H358 cells (G12C). Description: Cell viability assay (CellTiter-Glo), H358 cells. The note with it: Homo sapiens, NCI-H358, 72 h, read-out: Inhibition of Cancerous Cells IC50 H358 (G12C). The method, boiled down:
as §1

The subject of another experiment is SW48 cells (wt). Description: Cell viability assay (CellTiter-Glo), SW48 cells. The note with it: Homo sapiens, read-out: Inhibition of Cancerous Cells IC50 SW48 (wt). The method, boiled down: as §1
The next experiment deals with Molm-13 cells. Description: Inhibition of Molm-13 cells. The following applies: Homo sapiens; for inhibition at 1 µM: compound 1 μM, read-out: Inhibition of Molm-13 Cells, percentage of inhibition at 1 μM; for inhibition at 10 µM: compound 10 μM, read-out: Inhibition of Molm-13 Cells, percentage of inhibition at 10 μM.
[1] abbreviates: 72 h, SW480 cells, 3 days incubation, CellTiter-Glo luminescence.
Where [2] appears, read: Lovo cells, 3 days incubation, CellTiter-Glo luminescence.
The mark [3] stands for this setting: H23 cells, 3 days incubation, CellTiter-Glo luminescence.
Setting [4] is: H358 cells, 3 days incubation, CellTiter-Glo luminescence.
The mark [5] stands for this setting: 72 h, SW48 cells, 3 days incubation, CellTiter-Glo luminescence.

The structures appear in SMILES notation. pIC50: −log10 of the molar value. Like-named read-outs stand apart in the source and are kept apart here. Some results are limits rather than exact numbers.

In the case of `COc1cc2c(N[C@H](C)c3cccc(Br)c3)nc(C)nc2cc1OCCCCCCCN1CCC(c2cc(F)cc3c2CN(C2CCC(=O)NC2=O)C3=O)CC1` (stereo partly drawn) [Compound A1, 3-(4-(1-(7-((4-(((R)-1-(3-bromophenyl)ethyl)amino)-6-methoxy-2-methylquinazolin-7-yl)oxy)heptyl)piperidin-4-yl)-6-fluoro-1-oxoisoindolin-2-yl)piperidine-2,6-dione], the pIC50 is 6.24 in the experiment on SW480 cells (G12V) (SW480, 72 h); 6.03 in the experiment on Lovo cells (G13D) (LoVo); 5.92 in the experiment with H23 cells; 5.55 in the experiment on H358 cells (G12C); 6.15 in the experiment with SW48 cells (wt) (SW48, 72 h).
Regarding `COc1cc2c(N[C@H](C)c3cccc(Br)c3)nc(C)nc2cc1OCCCN1CCC(c2cc(F)cc3c2CN(C2CCC(=O)NC2=O)C3=O)CC1` (stereo partly drawn) [Compound A10, 3-(4-(1-(3-((4-(((R)-1-(3-Bromophenyl)ethyl)amino)-6-methoxy-2-methyl-quinazolin-7-yl)oxy)propyl)piperidin-4-yl)-6-fluoro-1-oxoisoindolin-2-yl)piperidine-2,6-dione], in the experiment with Molm-13 cells, the inhibition at 1 µM was 22% and the inhibition at 10 µM came out at 99%.
In the case of `CCOc1cc(C(C)(C)C)ccc1C1=N[C@@](C)(c2ccc(Cl)cc2)[C@@](C)(c2ccc(Cl)cc2)N1C(=O)N1CCN(CCC(=O)NCCCCCCCCCOc2cc3nc(C)nc(N[C@H](C)c4cccc(Br)c4)c3cc2OC)CC1` [Compound C7, N-(9-((4-(((R)-1-(3-Bromophenyl)ethyl)amino)-6-methoxy-2-methylquinazolin-7-yl)oxy)nonyl)-3-(4-((4S,5R)-2-(4-(tert-butyl)-2-ethoxyphenyl)-4,5-bis(4-chlorophenyl)-4,5-dimethyl-4,5-dihydro-1H-imidazole-1-carbonyl)piperazin-1-yl)propanamide], the pIC50 in the experiment on SW480 cells (G12V) (setting [1]) is under 5.00; in the experiment on Lovo cells (G13D) (setting [2]), 5.18; with H23 cells (setting [3]), under 5.00; in the experiment on H358 cells (G12C) (setting [4]), under 5.00; in the experiment with SW48 cells (wt) (setting [5]), under 5.00.
Turning to `CCOc1cc(C(C)(C)C)ccc1C1=N[C@@](C)(c2ccc(Cl)cc2)[C@@](C)(c2ccc(Cl)cc2)N1C(=O)N1CCN(CCC(=O)NCCCCCOc2cc3nc(C)nc(N[C@H](C)c4cccc(Br)c4)c3cc2OC)CC1` [Compound C8, N-(5-((4-(((R)-1-(3-Bromophenyl)ethyl)amino)-6-methoxy-2-methylquinazolin-7-yl)oxy)pentyl)-3-(4-((4S,5R)-2-(4-(tert-butyl)-2-ethoxyphenyl)-4,5-bis(4-chlorophenyl)-4,5-dimethyl-4,5-dihydro-1H-imidazole-1-carbonyl)piperazin-1-yl)propanamide], the pIC50 was 5.85 with SW480 cells (G12V) (setting [1]); 6.27 in the experiment on Lovo cells (G13D) (setting [2]); under 5.00 in the experiment on H23 cells (setting [3]); 5.55 in the experiment on H358 cells (G12C) (setting [4]); 5.96 in the experiment with SW48 cells (wt) (setting [5]).
Turning to `COc1cc2c(N[C@H](C)c3cccs3)nc(C)nc2cc1OCCCCCCCCC(=O)N[C@H](C(=O)N1C[C@H](O)C[C@H]1C(=O)NCc1ccc(-c2scnc2C)cc1)C(C)(C)C` [Compound D5, (2S,4R)-4-Hydroxy-1-((S)-2-(9-((6-methoxy-2-methyl-4-(((R)-1-(thiophen-2-yl)ethyl)amino)quinazolin-7-yl)oxy)nonanamido)-3,3-dimethylbutanoyl)-N-(4-(4-methylthiazol-5-yl)benzyl)pyrrolidine-2-carboxamide], in the experiment with Molm-13 cells, the inhibition at 1 µM was 22% and the inhibition at 10 µM worked out at 99%.
On to `CNCc1ccccc1-c1csc([C@H](C)Nc2nc(C)nc3cc(OCCCCCCCCC(=O)N[C@H](C(=O)N4C[C@H](O)C[C@H]4C(=O)NCc4ccc(-c5scnc5C)cc4)C(C)(C)C)c(OC)cc23)c1` [Compound D10, (2S,4R)-4-hydroxy-1-((S)-2-(9-((6-methoxy-2-methyl-4-(((S)-1-(4-(2-((methylamino)methyl)phenyl)thiophen-2-yl)ethyl)amino)quinazolin-7-yl)oxy)nonanamido)-3,3-dimethylbutanoyl)-N-(4-(4-methylthiazol-5-yl)benzyl)pyrrolidine-2-carboxamide], for which the pIC50 in the experiment on H23 cells (setting [3]) is 6.03; with H358 cells (G12C) (setting [4]), 6.12.
Turning to `COc1cc2nc(C)nc(N[C@H](C)c3cccc(Br)c3)c2cc1OC` [drawing 284, reference compound], the pIC50 with SW480 cells (G12V) (setting [1]) was 5.55; in the experiment on Lovo cells (G13D) (setting [2]) it was 5.66; with H23 cells (setting [3]), 5.32; with H358 cells (G12C) (setting [4]) it was 5.39; in the experiment on SW48 cells (wt) (setting [5]), 5.44.
Regarding `COc1cc2nc(C)nc(N[C@H](C)c3cccc(Br)c3)c2cc1OC` [drawing 287], in the experiment with Molm-13 cells, the inhibition at 1 µM is 17% and the inhibition at 10 µM is 91%.
Take `CNCc1ccccc1-c1csc([C@@H](C)Nc2nc(C)nc3cc(OC)c(OC)cc23)c1` [reference compound]: the negative-log IC50 (pIC50) was 5.82 in the experiment with H23 cells (setting [3]) and 5.68 with H358 cells (G12C) (setting [4]).
Consider `CNCc1ccccc1-c1csc([C@H](C)Nc2nc(C)nc3cc(OC)c(OC)cc23)c1` [reference compound], for which the pIC50 with H23 cells (setting [3]) was 5.64; in the experiment with H358 cells (G12C) (setting [4]), 5.62.
